{"source": "patent US20130143829A1", "about": "“Topical Combination Formulations of Macrocyclic Lactones with Synthetic Pyrethroids” (priority 2011, published 2013)", "origin": "cited, not measured here", "details": "in vivo", "data": [{"substance": "eprinomectin", "values": [{"measurement": "Milk to plasma partition ratio", "value": "~0.2"}]}]}
